Organism: Rattus norvegicus
Experiment: DrugMatrix - Regimen: Daily Repeat
Type: toxicity, organism-based, Sprague-Dawley
Parameters: regimen Daily Repeat, gender Male, age 6-8 weeks
Settings: in vivo, po, route oral GAVAGE, […]; for ABSOLUTE BASOPHIL / ABSOLUTE EOSINOPHIL / ABSOLUTE LYMPHOCYTE / ABSOLUTE MONOCYTE / ABSOLUTE SEGMENTED NEUTROPHIL / BASOPHIL / EOSINOPHIL / ERYTHROCYTE COUNT / HEMATOCRIT / HEMOGLOBIN / LEUKOCYTE COUNT / LYMPHOCYTE / MEAN CORPUSCULAR HEMOGLOBIN / MEAN CORPUSCULAR HEMOGLOBIN CONCENTRATION / MEAN CORPUSCULAR VOLUME / MONOCYTE / NEUTROPHIL / NUCLEATED RED BLOOD CELLS / PLATELET COUNT: tissue Blood; for ALANINE AMINOTRANSFERASE / ALBUMIN / ALKALINE PHOSPHATASE / ASPARTATE AMINOTRANSFERASE / BLOOD UREA NITROGEN / CARBON DIOXIDE / CHLORIDE / CHOLESTEROL / CREATINE PHOSPHOKINASE / CREATININE / GLUCOSE / LACTATE DEHYDROGENASE / LIPASE / PHOSPHORUS / POTASSIUM / SODIUM / TOTAL BILIRUBIN / TOTAL PROTEIN / URIC ACID: tissue Plasma
[1] = 0.6 mg/kg, 120 h, dose level Low, time 5 day
[2] = 4.5 mg/kg, 72 h, dose level High, time 3 day
[3] = 4.5 mg/kg, 120 h, dose level High, time 5 day

O=C(O)CCCc1ccc(N(CCCl)CCCl)cc1 [CHLORAMBUCIL]
ABSOLUTE BASOPHIL [1]: 0 CELLS/uL
ABSOLUTE EOSINOPHIL [1]: 245.67 CELLS/uL
ABSOLUTE LYMPHOCYTE [1]: 10916 CELLS/uL
ABSOLUTE MONOCYTE [1]: 468.33 CELLS/uL
ABSOLUTE SEGMENTED NEUTROPHIL [1]: 1403.33 CELLS/uL
BASOPHIL [1]: 0%
EOSINOPHIL [1]: 1.67%
ERYTHROCYTE COUNT [1]: 5.48 x10E6/uL
HEMATOCRIT [1]: 34.97%
HEMOGLOBIN [1]: 13.77 G/DL
LEUKOCYTE COUNT [1]: 13.03 x10E3/uL
LYMPHOCYTE [1]: 84.33%
MEAN CORPUSCULAR HEMOGLOBIN [1]: 25.13 pg
MEAN CORPUSCULAR HEMOGLOBIN CONCENTRATION [1]: 39.37 G/DL
MEAN CORPUSCULAR VOLUME [1]: 63.77 fL
MONOCYTE [1]: 3.67%
NEUTROPHIL [1]: 10.33%
NUCLEATED RED BLOOD CELLS [1]: 0 /100WBC
PLATELET COUNT [1]: 1176 x10E3/uL
ALANINE AMINOTRANSFERASE [1]: 57.33 u/L
ALBUMIN [1]: 4.03 G/DL
ALKALINE PHOSPHATASE [1]: 437.67 u/L
ASPARTATE AMINOTRANSFERASE [1]: 74.67 u/L
BLOOD UREA NITROGEN [1]: 12 mg/dL
CARBON DIOXIDE [1]: 24.33 mmol/L
CHLORIDE [1]: 100.67 MEQ/L
CHOLESTEROL [1]: 76.67 mg/dL
CREATINE PHOSPHOKINASE [1]: 301 u/L
CREATININE [1]: 0.16 mg/dL
GLUCOSE [1]: 184.33 mg/dL
LACTATE DEHYDROGENASE [1]: 187.33 u/L
LIPASE [1]: 7 u/L
PHOSPHORUS [1]: 10.63 mg/dL
POTASSIUM [1]: 6.13 MEQ/L
SODIUM [1]: 139.57 MEQ/L
TOTAL BILIRUBIN [1]: 0.13 mg/dL
TOTAL PROTEIN [1]: 5.83 G/DL
URIC ACID [1]: 1.33 mg/dL
ABSOLUTE BASOPHIL [2]: 0 CELLS/uL
ABSOLUTE EOSINOPHIL [2]: 76.67 CELLS/uL
ABSOLUTE LYMPHOCYTE [2]: 5496.33 CELLS/uL
ABSOLUTE MONOCYTE [2]: 177.33 CELLS/uL
ABSOLUTE SEGMENTED NEUTROPHIL [2]: 816.33 CELLS/uL
BASOPHIL [2]: 0%
EOSINOPHIL [2]: 1.33%
ERYTHROCYTE COUNT [2]: 5.43 x10E6/uL
HEMATOCRIT [2]: 34.5%
HEMOGLOBIN [2]: 13.73 G/DL
LEUKOCYTE COUNT [2]: 6.57 x10E3/uL
LYMPHOCYTE [2]: 84.33%
MEAN CORPUSCULAR HEMOGLOBIN [2]: 25.33 pg
MEAN CORPUSCULAR HEMOGLOBIN CONCENTRATION [2]: 39.77 G/DL
MEAN CORPUSCULAR VOLUME [2]: 63.67 fL
MONOCYTE [2]: 2.67%
NEUTROPHIL [2]: 11.67%
NUCLEATED RED BLOOD CELLS [2]: 0 /100WBC
PLATELET COUNT [2]: 1208.33 x10E3/uL
ALANINE AMINOTRANSFERASE [2]: 50 u/L
ALBUMIN [2]: 4.1 G/DL
ALKALINE PHOSPHATASE [2]: 336 u/L
ASPARTATE AMINOTRANSFERASE [2]: 69 u/L
BLOOD UREA NITROGEN [2]: 13 mg/dL
CARBON DIOXIDE [2]: 25.33 mmol/L
CHLORIDE [2]: 100.33 MEQ/L
CHOLESTEROL [2]: 70.67 mg/dL
CREATINE PHOSPHOKINASE [2]: 260.33 u/L
CREATININE [2]: 0.34 mg/dL
GLUCOSE [2]: 191.33 mg/dL
LACTATE DEHYDROGENASE [2]: 111 u/L
LIPASE [2]: 9 u/L
PHOSPHORUS [2]: 12.53 mg/dL
POTASSIUM [2]: 6.51 MEQ/L
SODIUM [2]: 140.03 MEQ/L
TOTAL BILIRUBIN [2]: 0.1 mg/dL
TOTAL PROTEIN [2]: 5.57 G/DL
URIC ACID [2]: 2.1 mg/dL
ABSOLUTE BASOPHIL [3]: 0 CELLS/uL
ABSOLUTE EOSINOPHIL [3]: 0 CELLS/uL
ABSOLUTE LYMPHOCYTE [3]: 1406 CELLS/uL
ABSOLUTE MONOCYTE [3]: 62.67 CELLS/uL
ABSOLUTE SEGMENTED NEUTROPHIL [3]: 98 CELLS/uL
BASOPHIL [3]: 0%
EOSINOPHIL [3]: 0%
ERYTHROCYTE COUNT [3]: 5.5 x10E6/uL
HEMATOCRIT [3]: 34.17%
HEMOGLOBIN [3]: 13.53 G/DL
LEUKOCYTE COUNT [3]: 1.57 x10E3/uL
LYMPHOCYTE [3]: 90%
MEAN CORPUSCULAR HEMOGLOBIN [3]: 24.63 pg
MEAN CORPUSCULAR HEMOGLOBIN CONCENTRATION [3]: 39.63 G/DL
MEAN CORPUSCULAR VOLUME [3]: 62.13 fL
MONOCYTE [3]: 4%
NEUTROPHIL [3]: 6%
NUCLEATED RED BLOOD CELLS [3]: 0 /100WBC
PLATELET COUNT [3]: 1169.33 x10E3/uL
ALANINE AMINOTRANSFERASE [3]: 45 u/L
ALBUMIN [3]: 3.97 G/DL
ALKALINE PHOSPHATASE [3]: 263.67 u/L
ASPARTATE AMINOTRANSFERASE [3]: 75.33 u/L
BLOOD UREA NITROGEN [3]: 13 mg/dL
CARBON DIOXIDE [3]: 24.33 mmol/L
CHLORIDE [3]: 101 MEQ/L
CHOLESTEROL [3]: 70.67 mg/dL
CREATINE PHOSPHOKINASE [3]: 644 u/L
CREATININE [3]: 0.13 mg/dL
GLUCOSE [3]: 157 mg/dL
LACTATE DEHYDROGENASE [3]: 154 u/L
LIPASE [3]: 7.33 u/L
PHOSPHORUS [3]: 9.53 mg/dL
POTASSIUM [3]: 6.16 MEQ/L
SODIUM [3]: 140.2 MEQ/L
TOTAL BILIRUBIN [3]: 0.2 mg/dL
TOTAL PROTEIN [3]: 5.73 G/DL
URIC ACID [3]: 1.3 mg/dL
